Reference: patent publication US20070049564A1 (Wyeth, priority 2005, published 2007)
≈ marks a conversion by molar mass, not a printed value. Like-named read-outs stand apart in the source and are kept apart here.

How the values were obtained:
[1] = test system: E. coli GC 2236; test: MIC, broth microdilution; details: Escherichia coli
[2] = test system: E. coli GC 2235; test: MIC, broth microdilution; details: Escherichia coli
[3] = test system: E. coli GC 2233; test: MIC, broth microdilution; details: Escherichia coli
[4] = test system: E. coli GC 2270; test: MIC, broth microdilution; details: Escherichia coli
[5] = test system: E. coli GC 2271; test: MIC, broth microdilution; details: Escherichia coli
[6] = test system: E. coli GC 4559; test: MIC, broth microdilution; details: Escherichia coli
Protocol: (§1) Antimicrobial susceptibility testing. The in vitro activities of the antibiotics are determined by the broth microdilution method as recommended by the National Committee for Clinical Laboratory Standards (NCCLS) (1). Mueller-Hinton II broth (MHBII)(BBL Cockeysville, Md.) is the medium employed in the testing procedures. Microtiter plates containing serial dilutions of each antimicrobial agent are inoculated with each organism to yield the appropriate density (10^5 CFU/ml) in a 100 μl final volume. The plates are incubated for 18-22 hours at 35° C. in ambient air.
(§2) Representative compounds were first incubated in mouse serum for an hour prior to the in vitro testing against a panel of selected gram-positive and gram-negative bacteria strains. All compounds were also pre-incubated in water for an hour prior to testing as control. Representative compounds of Formula I were incubated in human serum prior to MIC determination.

[7] = test system: E. coli GC 4560; test: MIC, broth microdilution; details: Escherichia coli
[8] = test system: E. coli GC 6465; test: MIC, broth microdilution; details: Escherichia coli
Protocol: as §1
Representative compounds were first incubated in mouse serum for an hour prior to the in vitro testing against a panel of selected gram-positive and gram-negative bacteria strains. All compounds were also pre-incubated in water for an hour prior to testing as control.

[9] = test system: E. coli GC 2203; test: MIC, broth microdilution; details: Escherichia coli
[10] = test system: E. coli GC 1073; test: MIC, broth microdilution; details: Escherichia coli
[11] = test system: P. aeruginosa GC 2214; test: MIC, broth microdilution; details: Pseudomonas aeruginosa
[12] = test system: S. aureus GC 6467; test: MIC, broth microdilution; details: Staphylococcus aureus
[13] = test system: S. aureus GC 4536; test: MIC, broth microdilution; details: Staphylococcus aureus
[14] = test system: S. aureus GC 6469; test: MIC, broth microdilution; details: Staphylococcus aureus
[15] = test system: E. faecalis GC 4555; test: MIC, broth microdilution; details: Enterococcus faecalis
[16] = test system: E. faecalis GC 2265; test: MIC, broth microdilution; details: Enterococcus faecalis
[17] = test system: E. faecalis GC 2242; test: MIC, broth microdilution; details: Enterococcus faecalis
[18] = test system: S. agalactiae GC 4564; test: MIC, broth microdilution; details: Streptococcus agalactiae
Protocol: as §1, §2

[19] = test system: E. coli; test: Range of MIC for E. coli strains; details: Escherichia coli, 20 h, read-out: Range of MIC, E. coli (Mouse Serum)
[20] = test system: Staph.; test: Range of MIC for Staph. strains, including MRSA; details: Staphylococcus aureus

CCCCCCC(=O)OCOC(=O)N(CC(=O)Nc1cc(N(C)C)c2c(c1O)C(=O)C1=C(O)[C@]3(O)C(=O)C(C(N)=O)=C(O)[C@@H](N(C)C)[C@@H]3C[C@@H]1C2)C(C)(C)C [Example 48, ({[(2-{[(5aR,6aS,7S,10aS)-9-(aminocarbonyl)-4,7-bis(dimethylamino)-1,8,10a,11-tetrahydroxy-10,12-dioxo-5,5a,6,6a,7,10,10a,12-octahydrotetracen-2-yl]amino}-2-oxoethyl)(tert-butyl)amino]carbonyl}oxy)methyl heptanoate]
MIC ([1]; GC2236, read-out: MINIMAL INHIBITORY CONCENTRATION MIC, Human Serum): 16 µg/mL (≈ 20.7 µM) | MIC ([1]; GC2236, read-out: MINIMAL INHIBITORY CONCENTRATION MIC, Mouse Serum): 0.25 µg/mL (≈ 0.324 µM) | MIC ([1]; GC2236, read-out: MINIMAL INHIBITORY CONCENTRATION MIC, Water): 64 µg/mL (≈ 82.9 µM) | MIC ([2]; GC2235, read-out: MINIMAL INHIBITORY CONCENTRATION MIC, Human Serum): 16 µg/mL (≈ 20.7 µM) | MIC ([2]; GC2235, read-out: MINIMAL INHIBITORY CONCENTRATION MIC, Mouse Serum): 0.25 µg/mL (≈ 0.324 µM) | MIC ([2]; GC2235, read-out: MINIMAL INHIBITORY CONCENTRATION MIC, Water): 32 µg/mL (≈ 41.5 µM) | MIC ([3]; GC2233, read-out: MINIMAL INHIBITORY CONCENTRATION MIC, Human Serum): 16 µg/mL (≈ 20.7 µM) | MIC ([3]; GC2233, read-out: MINIMAL INHIBITORY CONCENTRATION MIC, Mouse Serum): 0.25 µg/mL (≈ 0.324 µM) | MIC ([3]; GC2233, read-out: MINIMAL INHIBITORY CONCENTRATION MIC, Water): 64 µg/mL (≈ 82.9 µM) | MIC ([4]; GC2270, read-out: MINIMAL INHIBITORY CONCENTRATION MIC, Human Serum): 16 µg/mL (≈ 20.7 µM) | MIC ([4]; GC2270, read-out: MINIMAL INHIBITORY CONCENTRATION MIC, Mouse Serum): 0.5 µg/mL (≈ 0.648 µM) | MIC ([4]; GC2270, read-out: MINIMAL INHIBITORY CONCENTRATION MIC, Water): 64 µg/mL (≈ 82.9 µM) | MIC ([5]; GC2271, read-out: MINIMAL INHIBITORY CONCENTRATION MIC, Human Serum): 8 µg/mL (≈ 10.4 µM) | MIC ([5]; GC2271, read-out: MINIMAL INHIBITORY CONCENTRATION MIC, Mouse Serum): 0.25 µg/mL (≈ 0.324 µM) | MIC ([5]; GC2271, read-out: MINIMAL INHIBITORY CONCENTRATION MIC, Water): 32 µg/mL (≈ 41.5 µM) | MIC ([6]; GC4559, read-out: MINIMAL INHIBITORY CONCENTRATION MIC, Human Serum): 32 µg/mL (≈ 41.5 µM) | MIC ([6]; GC4559, read-out: MINIMAL INHIBITORY CONCENTRATION MIC, Mouse Serum): 0.25 µg/mL (≈ 0.324 µM) | MIC ([6]; GC4559, read-out: MINIMAL INHIBITORY CONCENTRATION MIC, Water): > 64 µg/mL | MIC ([7]; GC4560, read-out: MINIMAL INHIBITORY CONCENTRATION MIC, Human Serum): 1 µg/mL (≈ 1.3 µM) | MIC ([7]; GC4560, read-out: MINIMAL INHIBITORY CONCENTRATION MIC, Mouse Serum): 0.12 µg/mL (≈ 0.155 µM) | MIC ([7]; GC4560, read-out: MINIMAL INHIBITORY CONCENTRATION MIC, Water): 2 µg/mL (≈ 2.59 µM) | MIC ([8]; GC6465, read-out: MINIMAL INHIBITORY CONCENTRATION MIC, Human Serum): > 64 µg/mL | MIC ([8]; GC6465, read-out: MINIMAL INHIBITORY CONCENTRATION MIC, Mouse Serum): 2 µg/mL (≈ 2.59 µM) | MIC ([8]; GC6465, read-out: MINIMAL INHIBITORY CONCENTRATION MIC, Water): > 64 µg/mL | MIC ([9]; GC2203, read-out: MINIMAL INHIBITORY CONCENTRATION MIC, Human Serum): 16 µg/mL (≈ 20.7 µM) | MIC ([9]; GC2203, read-out: MINIMAL INHIBITORY CONCENTRATION MIC, Mouse Serum): 0.25 µg/mL (≈ 0.324 µM) | MIC ([9]; GC2203, read-out: MINIMAL INHIBITORY CONCENTRATION MIC, Water): 64 µg/mL (≈ 82.9 µM) | MIC ([10]; GC1073, read-out: MINIMAL INHIBITORY CONCENTRATION MIC, Human Serum): 32 µg/mL (≈ 41.5 µM) | MIC ([10]; GC1073, read-out: MINIMAL INHIBITORY CONCENTRATION MIC, Mouse Serum): 0.5 µg/mL (≈ 0.648 µM) | MIC ([10]; GC1073, read-out: MINIMAL INHIBITORY CONCENTRATION MIC, Water): 64 µg/mL (≈ 82.9 µM) | MIC ([11]; GC2214, read-out: MINIMAL INHIBITORY CONCENTRATION MIC, Human Serum): > 64 µg/mL | MIC ([11]; GC2214, read-out: MINIMAL INHIBITORY CONCENTRATION MIC, Mouse Serum): 16 µg/mL (≈ 20.7 µM) | MIC ([11]; GC2214, read-out: MINIMAL INHIBITORY CONCENTRATION MIC, Water): > 64 µg/mL | MIC ([12]; GC6467, read-out: MINIMAL INHIBITORY CONCENTRATION MIC, Human Serum): 0.5 µg/mL (≈ 0.648 µM) | MIC ([12]; GC6467, read-out: MINIMAL INHIBITORY CONCENTRATION MIC, Mouse Serum): 1 µg/mL (≈ 1.3 µM) | MIC ([12]; GC6467, read-out: MINIMAL INHIBITORY CONCENTRATION MIC, Water): 2 µg/mL (≈ 2.59 µM) | MIC ([13]; GC4536, read-out: MINIMAL INHIBITORY CONCENTRATION MIC, Human Serum): 0.25 µg/mL (≈ 0.324 µM) | MIC ([13]; GC4536, read-out: MINIMAL INHIBITORY CONCENTRATION MIC, Mouse Serum): 0.25 µg/mL (≈ 0.324 µM) | MIC ([13]; GC4536, read-out: MINIMAL INHIBITORY CONCENTRATION MIC, Water): 0.25 µg/mL (≈ 0.324 µM) | MIC ([14]; GC6469, read-out: MINIMAL INHIBITORY CONCENTRATION MIC, Human Serum): 1 µg/mL (≈ 1.3 µM) | MIC ([14]; GC6469, read-out: MINIMAL INHIBITORY CONCENTRATION MIC, Mouse Serum): 0.5 µg/mL (≈ 0.648 µM) | MIC ([14]; GC6469, read-out: MINIMAL INHIBITORY CONCENTRATION MIC, Water): 1 µg/mL (≈ 1.3 µM) | MIC ([15]; GC4555, read-out: MINIMAL INHIBITORY CONCENTRATION MIC, Human Serum): 4 µg/mL (≈ 5.18 µM) | MIC ([15]; GC4555, read-out: MINIMAL INHIBITORY CONCENTRATION MIC, Mouse Serum): 0.12 µg/mL (≈ 0.155 µM) | MIC ([15]; GC4555, read-out: MINIMAL INHIBITORY CONCENTRATION MIC, Water): 2 µg/mL (≈ 2.59 µM) | MIC ([16]; GC2265, read-out: MINIMAL INHIBITORY CONCENTRATION MIC, Human Serum): 1 µg/mL (≈ 1.3 µM) | MIC ([16]; GC2265, read-out: MINIMAL INHIBITORY CONCENTRATION MIC, Mouse Serum): 0.5 µg/mL (≈ 0.648 µM) | MIC ([16]; GC2265, read-out: MINIMAL INHIBITORY CONCENTRATION MIC, Water): 2 µg/mL (≈ 2.59 µM) | MIC ([17]; GC2242, read-out: MINIMAL INHIBITORY CONCENTRATION MIC, Human Serum): 1 µg/mL (≈ 1.3 µM) | MIC ([17]; GC2242, read-out: MINIMAL INHIBITORY CONCENTRATION MIC, Mouse Serum): 0.5 µg/mL (≈ 0.648 µM) | MIC ([17]; GC2242, read-out: MINIMAL INHIBITORY CONCENTRATION MIC, Water): 1 µg/mL (≈ 1.3 µM) | MIC ([18]; GC4564, read-out: MINIMAL INHIBITORY CONCENTRATION MIC, Human Serum): 0.12 µg/mL (≈ 0.155 µM) | MIC ([18]; GC4564, read-out: MINIMAL INHIBITORY CONCENTRATION MIC, Mouse Serum): 0.12 µg/mL (≈ 0.155 µM) | MIC ([18]; GC4564, read-out: MINIMAL INHIBITORY CONCENTRATION MIC, Water): 0.12 µg/mL (≈ 0.155 µM) | MIC [19]: 0.25 to 2 µg/mL (≈ 0.324 to 2.59 µM) | MIC ([20]; MRSA, read-out: Range of MIC, Staph (Mouse Serum)): 0.12 to 2 µg/mL (≈ 0.155 to 2.59 µM) | MIC ([20]; MRSA, read-out: Range of MIC, Staph (Water)): 0.12 to 2 µg/mL (≈ 0.155 to 2.59 µM) | MIC ([20]; read-out: Minimum inhibitory concentration (MIC), Staph (Human Serum)): 0.12 to 2 µg/mL (≈ 0.155 to 2.59 µM) | MIC ([20]; read-out: Minimum inhibitory concentration (MIC), Staph (Water)): 0.12 to 2 µg/mL (≈ 0.155 to 2.59 µM)
